# Assay results taken from US5929075A, “Apolipoprotein-B synthesis inhibitors” (Janssen Pharmaceutica, N.V., priority 1994, dated 1999).
# Tested on: apolipoprotein B
# Assay: Apolipoprotein B (apo B) inhibition test in cultured human liver cells (Hepg2-cells)
# Format: cell-based
# Details: concentration of the drug needed to reduce apoB secretion to 50% of the control, overnight at 37° C.
# Procedure: Cultured human liver cells (Hepg2-cells), which synthesize and secrete low-density lipoproteins, were incubated overnight at 37° C. in a liquid medium containing radioactively labelled leucine. Thus radioactively labelled leucine was incorporated into the apolipoprotein B. The liquid medium was decanted and the apolipoprotein B was isolated by means of a double immunoprecipitation, i.e. first an apolipoprotein B-specific antibody (antibody1) was added to the liquid medium and subsequently a second antibody (antibody2) was added which binds specifically to the apoB-antibody1 -complex. The thus formed apoB-antibody1 -antibody2 complex precipitated and was isolated by centrifuge. Quantification of the amount of apolipoprotein B synthesized during the night resulted from measuring the radioactivity of the isolated complex. To measure the inhibiting activity of the test compound, that test compound was added to the liquid medium at different concentrations and the concentration of apolipoprotein B synthesized in the presence of a test compound (concentration apoB(after)) was compared to the concentration of apolipoprotein B which was synthesized in the absence of the test compound (concentration apoB(control)). For each experiment the inhibition of apolipoprotein-B formation was expressed as
# % inhibition=100×(1-concentration of apoB(after)/concentration
# When more experiments were carried out for the same concentration, the median value of the inhibition calculated for these experiments was calculated. IC50 -values (concentration of the drug needed to reduce apoB secretion to 50% of the control) were also computed.
row,IC50,Structure (SMILES)
1,0.081 µM,CC(C)Cn1ncn(-c2ccc(N3CCN(c4ccc(OC[C@H]5CO[C@](CSc6ncnn6C)(c6ccc(Cl)cc6)O5)cc4)CC3)cc2)c1=O (relative stereo) [Compound 61]
2,0.19 µM,CCC(C)n1ncn(-c2ccc(N3CCN(c4ccc(OC[C@H]5CO[C@](CSc6ncnn6C)(c6ccc(F)cc6F)O5)cc4)CC3)cc2)c1=O (relative stereo) [Compound 62]
3,0.046 µM,CCC(C)n1ncn(-c2ccc(N3CCN(c4ccc(OC[C@H]5CO[C@](CSc6ncnn6C)(c6ccc(F)cc6)O5)cc4)CC3)cc2)c1=O (relative stereo) [Compound 63]
4,0.16 µM,CCC(CC)n1ncn(-c2ccc(N3CCN(c4ccc(OC[C@H]5CO[C@](CSc6ncnn6C)(c6ccc(F)cc6)O5)cc4)CC3)cc2)c1=O (relative stereo) [Compound 64]
5,0.29 µM,CCC(CC)n1ncn(-c2ccc(N3CCN(c4ccc(OC[C@H]5CO[C@](CSc6ncnn6C)(c6ccc(F)cc6F)O5)cc4)CC3)cc2)c1=O (relative stereo) [Compound 65]
6,0.13 µM,Cn1ncnc1SC[C@]1(c2ccc(F)cc2)OC[C@H](COc2ccc(N3CCN(c4ccc(-n5cnn(C6CCCC6)c5=O)cc4)CC3)cc2)O1 (relative stereo) [Compound 66]
7,0.18 µM,Cn1ncnc1SC[C@]1(c2ccc(F)cc2F)OC[C@H](COc2ccc(N3CCN(c4ccc(-n5cnn(C6CCCC6)c5=O)cc4)CC3)cc2)O1 (relative stereo) [Compound 67]
8,0.081 µM,CC(C)n1cnn(-c2ccc(N3CCN(c4ccc(OC[C@H]5CO[C@](CSc6ncnn6C)(c6ccc(Cl)cc6)O5)cc4)CC3)cc2)c1=O (relative stereo) [Compound 68]
9,0.026 µM,CCC(C)n1cnn(-c2ccc(N3CCN(c4ccc(OC[C@H]5CO[C@](CSc6ncnn6C)(c6ccc(Cl)cc6)O5)cc4)CC3)cc2)c1=O (relative stereo) [Compound 69]
10,0.12 µM,CCC(C)n1cnn(-c2ccc(N3CCN(c4ccc(OC[C@H]5CO[C@](CSc6ncnn6C)(c6ccc(F)cc6F)O5)cc4)CC3)cc2)c1=O (relative stereo) [Compound 71]
11,0.19 µM,Cn1ncnc1SC[C@]1(c2ccc(F)cc2F)OC[C@H](COc2ccc(N3CCN(c4ccc(-n5ncn(C6CCCC6)c5=O)cc4)CC3)cc2)O1 (relative stereo) [Compound 72]
12,0.18 µM,CCC(CC)n1cnn(-c2ccc(N3CCN(c4ccc(OC[C@H]5CO[C@](CSc6ncnn6C)(c6ccc(F)cc6F)O5)cc4)CC3)cc2)c1=O (relative stereo) [Compound 73]
13,0.14 µM,Cn1ncnc1SC[C@]1(c2ccc(F)cc2)OC[C@H](COc2ccc(N3CCN(c4ccc(-n5ncn(C6CCCC6)c5=O)cc4)CC3)cc2)O1 (relative stereo) [Compound 74]
14,0.12 µM,CCC(CC)n1cnn(-c2ccc(N3CCN(c4ccc(OC[C@H]5CO[C@](CSc6ncnn6C)(c6ccc(F)cc6)O5)cc4)CC3)cc2)c1=O (relative stereo) [Compound 75]
15,0.024 µM,CCC(C)n1ncn(-c2ccc(N3CCN(c4ccc(OC[C@H]5CO[C@](CSc6ncn[nH]6)(c6ccc(Cl)cc6)O5)cc4)CC3)cc2)c1=O (relative stereo) [Compound 76]
16,0.071 µM,CCC(C)n1ncn(-c2ccc(N3CCN(c4ccc(OC[C@H]5CO[C@](CSc6ncnn6CC)(c6ccc(Cl)cc6)O5)cc4)CC3)cc2)c1=O (relative stereo) [Compound 77]
17,0.053 µM,CCCn1nc(CC)nc1SC[C@]1(c2ccc(Cl)cc2)OC[C@H](COc2ccc(N3CCN(c4ccc(-n5cnn(C(C)CC)c5=O)cc4)CC3)cc2)O1 (relative stereo) [Compound 78]
18,0.046 µM,CCCCn1ncnc1SC[C@]1(c2ccc(Cl)cc2)OC[C@H](COc2ccc(N3CCN(c4ccc(-n5cnn(C(C)CC)c5=O)cc4)CC3)cc2)O1 (relative stereo) [Compound 79]
19,0.072 µM,CCCn1ncnc1SC[C@]1(c2ccc(Cl)cc2)OC[C@H](COc2ccc(N3CCN(c4ccc(-n5cnn(C(C)CC)c5=O)cc4)CC3)cc2)O1 (relative stereo) [Compound 80]
20,0.049 µM,CCC(C)n1ncn(-c2ccc(N3CCN(c4ccc(OC[C@H]5CO[C@](CSc6nc(C)nn6C)(c6ccc(Cl)cc6)O5)cc4)CC3)cc2)c1=O (relative stereo) [Compound 81]
21,0.031 µM,CCC(C)n1ncn(-c2ccc(N3CCN(c4ccc(OC[C@@H]5CO[C@@](CSc6ncnn6C(C)C)(c6ccc(Cl)cc6)O5)cc4)CC3)cc2)c1=O (relative stereo) [Compound 82]
22,0.015 µM,CCC(C)n1cnn(-c2ccc(N3CCN(c4ccc(OC[C@H]5CO[C@](CSc6ncn[nH]6)(c6ccc(Cl)cc6)O5)cc4)CC3)cc2)c1=O (relative stereo) [Compound 83]

row,IC50,Structure (SMILES)
1,0.028 µM,CC(C)Cn1cnn(-c2ccc(N3CCN(c4ccc(OC[C@H]5CO[C@](CSc6ncn[nH]6)(c6ccc(Cl)cc6)O5)cc4)CC3)cc2)c1=O (relative stereo) [Compound 84]
2,0.069 µM,CC(C)Cn1cnn(-c2ccc(N3CCN(c4ccc(OC[C@H]5CO[C@](CSc6ncnn6C)(c6ccc(Cl)cc6)O5)cc4)CC3)cc2)c1=O (relative stereo) [Compound 87]
3,0.45 µM,CCC(C)n1ncn(-c2ccc(N3CCN(c4ccc(OC[C@H]5CO[C@](CSc6nnnn6C)(c6ccc(Cl)cc6)O5)cc4)CC3)cc2)c1=O (relative stereo) [Compound 88]
4,0.51 µM,CCC(C)n1ncn(-c2ccc(N3CCN(c4ccc(OC[C@H]5CO[C@](CSc6nnnn6-c6ccccc6)(c6ccc(Cl)cc6)O5)cc4)CC3)cc2)c1=O (relative stereo) [Compound 89]
5,0.027 µM,CCC(C)n1ccn(-c2ccc(N3CCN(c4ccc(OC[C@H]5CO[C@](CSc6nncn6C)(c6ccc(Cl)cc6)O5)cc4)CC3)cc2)c1=O (relative stereo) [Compound 93]
6,0.19 µM,CCC(C)N1CCN(c2ccc(N3CCN(c4ccc(OC[C@H]5CO[C@](CSc6nncn6C)(c6ccc(Cl)cc6)O5)cc4)CC3)cc2)C1=O (relative stereo) [Compound 94]
7,0.16 µM,CCC(C)n1ncn(-c2ccc(N3CCN(c4ccc(OC[C@H]5CO[C@](CSc6ncccn6)(c6ccc(Cl)cc6)O5)cc4)CC3)cc2)c1=O (relative stereo) [Compound 101]
8,0.37 µM,CCC(C)n1ncn(-c2ccc(N3CCN(c4ccc(OC[C@H]5CO[C@](CSc6nc(C)cc(C)n6)(c6ccc(Cl)cc6)O5)cc4)CC3)cc2)c1=O (relative stereo) [Compound 102]
9,0.099 µM,CCC(C)n1ncn(-c2ccc(N3CCN(c4ccc(OC[C@H]5CO[C@](CSc6ccccn6)(c6ccc(Cl)cc6)O5)cc4)CC3)cc2)c1=O (relative stereo) [Compound 105]
10,0.88 µM,CCC(C)n1ncn(-c2ccc(N3CCN(c4ccc(OC[C@H]5CO[C@](CSc6ccncc6)(c6ccc(Cl)cc6)O5)cc4)CC3)cc2)c1=O (relative stereo) [Compound 106]
11,0.045 µM,CCC(C)n1ncn(-c2ccc(N3CCN(c4ccc(OC[C@H]5CO[C@](CSc6nc(C)co6)(c6ccc(Cl)cc6)O5)cc4)CC3)cc2)c1=O (relative stereo) [Compound 107]
12,0.026 µM,CCC(C)n1ncn(-c2ccc(N3CCN(c4ccc(OC[C@H]5CO[C@](CSc6nccs6)(c6ccc(Cl)cc6)O5)cc4)CC3)cc2)c1=O (relative stereo) [Compound 108]
13,0.027 µM,CCC(C)n1cnn(-c2ccc(N3CCN(c4ccc(OC[C@H]5CO[C@](CSc6nccs6)(c6ccc(Cl)cc6)O5)cc4)CC3)cc2)c1=O (relative stereo) [Compound 110]
14,0.062 µM,CC(C)Cn1cnn(-c2ccc(N3CCN(c4ccc(OC[C@H]5CO[C@](CSc6nccs6)(c6ccc(Cl)cc6)O5)cc4)CC3)cc2)c1=O (relative stereo) [Compound 111]
15,0.98 µM,"CCC(C)n1ncn(-c2ccc(N3CCN(c4ccc(OC[C@@H]5CO[C@@](CSc6ncn(C(C)C)n6)(c6ccc(Cl)cc6)O5)cc4)CC3)cc2)c1=O (relative stereo) [Compound 112, (±)-cis-4-[4-[4-[4-[[2-(4-chlorophenyl)-2-[[[1-(1-methylethyl)-1H-1,2,4-triazol-3-yl]thio]methyl]-1,3-dioxolan-4-yl]methoxy]phenyl]-1-piperazinyl]phenyl]-2,4-dihydro-2-(1-methylpropyl)-3H-1,2,4-triazol-3-one]"
16,0.088 µM,CCC(CC)n1ccn(-c2ccc(N3CCN(c4ccc(OC[C@H]5CO[C@](CSc6nncn6C)(c6ccc(Cl)cc6)O5)cc4)CC3)cc2)c1=O (relative stereo) [Compound 122]
17,0.074 µM,Cn1cnnc1SC[C@]1(c2ccc(Cl)cc2)OC[C@H](COc2ccc(N3CCN(c4ccc(-n5ccn(C6CCCC6)c5=O)cc4)CC3)cc2)O1 (relative stereo) [Compound 123]
18,0.14 µM,CCC(C)n1ccn(-c2ccc(N3CCN(c4ccc(OC[C@H]5CO[C@](CSc6nncn6C)(c6ccc(F)cc6)O5)cc4)CC3)cc2)c1=O (relative stereo) [Compound 126]
19,0.18 µM,Cn1cnnc1SC[C@]1(c2ccc(F)cc2)OC[C@H](COc2ccc(N3CCN(c4ccc(-n5ccn(C6CCCC6)c5=O)cc4)CC3)cc2)O1 (relative stereo) [Compound 128]
20,0.14 µM,CCC(CC)n1ccn(-c2ccc(N3CCN(c4ccc(OC[C@H]5CO[C@](CSc6nncn6C)(c6ccc(F)cc6)O5)cc4)CC3)cc2)c1=O (relative stereo) [Compound 130]
21,0.065 µM,CC[C@H](C)n1ncn(-c2ccc(N3CCN(c4ccc(OC[C@@H]5CO[C@@](CSc6nncn6C)(c6ccc(Cl)cc6)O5)cc4)CC3)cc2)c1=O [Compound 38]
